Experiments:
[1] = In Vivo Pharmacokinetics (mouse); conditions: plasma, PO
[2] = In Vivo Pharmacokinetics (cynomolgus monkey); parameters: species or system Cynomolgus monkeys; conditions: both sexes, plasma
Procedure: (§1) Test compounds were administered to male Sprague Dawley rats or male and female Cynomolgus monkeys intravenously or via oral gavage. For intravenous (IV) dosing, test compounds were dosed at 1 mg/kg using a formulation of 10% dimethylacetamide (DMAC), 10% propylene glycol (PG) in acidified saline via IV bolus for rat or 10 min IV infusion for monkey. For oral (PO) dosing, test compounds were dosed at 3.0 mg/kg using 5% DMAC in 0.5% methylcellulose in citrate buffer (PH˜2.5). Blood samples were collected at predose and various time points up to 24 hours postdose. All blood samples were collected using EDTA as the anticoagulant and centrifuged to obtain plasma samples. The plasma concentrations of test compounds were determined by LC-MS/MS methods. The measured plasma concentrations were used to calculate PK parameters by standard noncompartmental methods using Phoenix® WinNonlin software program (version 8.0, Pharsight Corporation) or similar software. In rats and monkeys, cassette dosing of test compounds were conducted to obtain preliminary PK parameters. In vivo pharmacokinetic experiments with male beagle dogs may be performed under the conditions described above.

[3] = In Vivo Pharmacokinetics (rat); parameters: species or system Sprague Dawley rats; conditions: male, Sprague Dawley, plasma, PO 3.0 mg/kg
Procedure: as §1

[4] = PO 3.0 mg/kg, read-out: CYNO PO AUC

## COc1nn(C)cc1-c1[nH]c2ncc3c(c2c1-c1ccc2c(cnn2C)c1)n(C1CCOCC1)c(=O)n3C [Comparative Example A, reference compound]
[1]
  AUC: > 1.5 µM·h
[2]; [4]
  AUC: ≤ 0.5 µM·h

## [2H]C([2H])([2H])n1ncc2cc(-c3c(-c4cn(C)nc4OC)[nH]c4ncc5c(c34)n(C3CCOCC3)c(=O)n5C)ccc21 [Comparative Example B, reference compound]
[2]; [4]
  AUC: ≤ 0.5 µM·h
[3]
  AUC: > 1.5 µM·h

## COc1nn(C)cc1-c1[nH]c2ncc3c(c2c1-c1ccc2c(cnn2C)c1)n([C@H]1CC[C@@H](CC#N)CC1)c(=O)n3C [E, reference compound]
[1]
  AUC: > 1.5 µM·h

## [2H]C([2H])([2H])N(Cc1ccc(-c2[nH]c3ncc4c(c3c2-c2ccc3c(c2)CC(C)(C)O3)n([C@@H]2CC[C@@H](NC(=O)OC)C2)c(=O)n4C([2H])([2H])[2H])cc1)C([2H])([2H])[2H] [Example 25, Methyl ((1R,3R)-3-(7-(4-((bis(methyl-d3)amino)methyl)phenyl)-8-(2,2-dimethyl-2,3-dihydrobenzofuran-5-yl)-3-(methyl-d3)-2-oxo-3,6-dihydroimidazo[4,5-d]pyrrolo[2,3-b]pyridin-1(2H)-yl)cyclopentyl)carbamate]
[2]; PO, 1 mg/kg
  AUC: ≤ 0.5 µM·h
[3]
  AUC: 0.5 to 1.5 µM·h

## [2H]C([2H])([2H])n1c(=O)n([C@@H]2CC[C@@H](NC(=O)OC)C2)c2c3c(-c4ccc5c(cnn5C(C)C)c4)c(-c4ccc(CN(C)C)cc4)[nH]c3ncc21 [Example 26, Methyl ((1R,3R)-3-(7-(4-((dimethylamino)methyl)phenyl)-8-(1-isopropyl-1H-indazol-5-yl)-3-(methyl-d3)-2-oxo-3,6-dihydroimidazo[4,5-d]pyrrolo[2,3-b]pyridin-1(2H)-yl)cyclopentyl)carbamate]
[2]; [4]
  AUC: 0.5 to 1.5 µM·h
[3]
  AUC: ≤ 0.5 µM·h

## [2H]C([2H])([2H])N(Cc1ccc(-c2[nH]c3ncc4c(c3c2-c2ccc(OCCOC)cc2)n([C@@H]2CC[C@@H](NC(=O)OC)C2)c(=O)n4C([2H])([2H])[2H])cc1)C([2H])([2H])[2H] [Example 27, Methyl ((1R,3R)-3-(7-(4-((bis(methyl-d3)amino)methyl)phenyl)-8-(4-(2-methoxyethoxy)phenyl)-3-(methyl-d3)-2-oxo-3,6-dihydroimidazo[4,5-d]pyrrolo[2,3-b]pyridin-1(2H)-yl)cyclopentyl)carbamate]
[2]; [4]
  AUC: > 1.5 µM·h
[3]
  AUC: 0.5 to 1.5 µM·h

## COC(=O)N[C@@H]1CC[C@@H](n2c(=O)n(C)c3cnc4[nH]c(-c5ccc(CN(C)C)cc5)c(-c5ccc(F)cc5)c4c32)C1 [Example 28, Methyl ((1R,3R)-3-(7-(4-((dimethylamino)methyl)phenyl)-8-(4-fluorophenyl)-3-methyl-2-oxo-3,6-dihydroimidazo[4,5-d]pyrrolo[2,3-b]pyridin-1(2H)-yl)cyclopentyl)carbamate]
[3]
  AUC: 0.5 to 1.5 µM·h

## [2H]C([2H])([2H])N(Cc1ccc(-c2[nH]c3ncc4c(c3c2-c2ccc3c(c2)COC3(C)C)n([C@@H]2CC[C@@H](NC(=O)OC)C2)c(=O)n4C([2H])([2H])[2H])cc1)C([2H])([2H])[2H] [Example 29, Methyl ((1R,3R)-3-(7-(4-((bis(methyl-d3)amino)methyl)phenyl)-8-(1,1-dimethyl-1,3-dihydroisobenzofuran-5-yl)-3-(methyl-d3)-2-oxo-3,6-dihydroimidazo[4,5-d]pyrrolo[2,3-b]pyridin-1(2H)-yl)cyclopentyl)carbamate]
[3]
  AUC: ≤ 0.5 µM·h

## [2H]C([2H])([2H])n1c(=O)n([C@@H]2CC[C@@H](NC(=O)OC)C2)c2c3c(-c4ccc5c(c4)COC5(C)C)c(-c4ccc(C(=O)N(C)C)cc4)[nH]c3ncc21 [Example 30, methyl ((1R,3R)-3-(8-(1,1-dimethyl-1,3-dihydroisobenzofuran-5-yl)-7-(4-(dimethylcarbamoyl)phenyl)-3-(methyl-d3)-2-oxo-3,6-dihydroimidazo[4,5-d]pyrrolo[2,3-b]pyridin-1(2H)-yl)cyclopentyl)carbamate]
[3]
  AUC: ≤ 0.5 µM·h

— patent US20250092044A1, “Kinase Inhibitors” (Incyte Corporation, priority 2023, published 2025)
